Reference: US20150087662A1, “CYCLOBUTANE AND METHYLCYCLOBUTANE DERIVATIVES AS JANUS KINASE INHIBITORS” (Incyte Corporation, priority 2010, published 2015)
Structures can show the parent of a compound that is named as a salt.

What was measured:
[1] = target: T1, JAK2 (a.a. 828-1132) (Homo sapiens, UniProt O60674); assay: In vitro JAK kinase assay (HTRF), JAK2; assay type: biochemical; conditions: catalytic domain, ATP 30 μM, 500 nM peptide, room temperature 1 hr
T1 construct: JAK2 (a.a. 828-1132); His tag (N); made in house; host or cells: insect cells (baculovirus)
Protocol: (§1) Compounds herein were tested for inhibitory activity of JAK targets according to the following in vitro assay described in Park et al., Analytical Biochemistry 1999, 269, 94-104. The catalytic domains of human JAK1 (a.a. 837-1142), JAK2 (a.a. 828-1132) and JAK3 (a.a. 781-1124) with an N-terminal His tag were expressed using baculovirus in insect cells and purified. The catalytic activity of JAK1, JAK2 or JAK3 was assayed by measuring the phosphorylation of a biotinylated peptide. The phosphorylated peptide was detected by homogenous time resolved fluorescence (HTRF). IC50s of compounds were measured for each kinase in the reactions that contain the enzyme, ATP and 500 nM peptide in 50 mM Tris (pH 7.8) buffer with 100 mM NaCl, 5 mM DTT, and 0.1 mg/mL (0.01%) BSA. The ATP concentration in the reactions was 90 μM for JAK1, 30 μM for JAK2 and 3 μM for JAK3. Reactions were carried out at room temperature for 1 hr and then stopped with 20 μL 45 mM EDTA, 300 nM SA-APC, 6 nM Eu-Py20 in assay buffer (Perkin Elmer, Boston, Mass.). Binding to the Europium labeled antibody took place for 40 minutes and HTRF signal was measured on a Fusion plate reader (Perkin Elmer, Boston, Mass.).

[2] = target: T2, human JAK1 (a.a. 837-1142) (Homo sapiens, UniProt P23458); assay: In vitro JAK kinase assay (HTRF), JAK1; assay type: biochemical; conditions: catalytic domain, ATP 90 μM, 500 nM peptide, room temperature 1 hr
T2 construct: human JAK1 (a.a. 837-1142); His tag (N); made in house; host or cells: insect cells (baculovirus)
Protocol: as §1

T1 sequence (O60674 828-1132): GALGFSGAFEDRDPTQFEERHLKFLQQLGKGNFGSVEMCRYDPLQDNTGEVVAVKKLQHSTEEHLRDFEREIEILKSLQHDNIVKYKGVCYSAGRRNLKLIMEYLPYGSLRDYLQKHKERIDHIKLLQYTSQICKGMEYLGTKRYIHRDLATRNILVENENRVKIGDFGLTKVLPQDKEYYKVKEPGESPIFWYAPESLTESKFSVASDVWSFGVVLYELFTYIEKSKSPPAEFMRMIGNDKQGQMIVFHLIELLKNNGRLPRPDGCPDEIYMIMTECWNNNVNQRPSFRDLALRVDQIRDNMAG
T2 sequence (P23458 849-1154): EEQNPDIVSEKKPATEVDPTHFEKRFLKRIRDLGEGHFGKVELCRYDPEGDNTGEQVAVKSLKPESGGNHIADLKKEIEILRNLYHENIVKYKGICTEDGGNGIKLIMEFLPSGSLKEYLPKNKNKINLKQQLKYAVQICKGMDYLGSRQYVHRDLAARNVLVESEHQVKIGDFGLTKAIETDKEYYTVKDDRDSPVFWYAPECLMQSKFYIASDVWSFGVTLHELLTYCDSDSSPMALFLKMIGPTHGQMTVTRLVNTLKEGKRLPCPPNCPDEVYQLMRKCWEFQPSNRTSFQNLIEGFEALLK

| Compound | IC50 [1] [nM] | IC50 [2] [nM] |
| --- | --- | --- |
| C[C@H]1C[C@H](C(CC#N)n2cc(-c3ncnc4[nH]ccc34)cn2)C1 (single isomer, unassigned) [Example 2, (3R or 3S)-3-(4-(7H-Pyrrolo[2,3-d]pyrimidin-4-yl)-1H-pyrazol-1-yl)-3-((trans)-3-methylcyclobutyl)propanenitrile phosphoric acid salt] | < 1 | < 2 |
| C[C@H]1C[C@@H](C(CC#N)n2cc(-c3ncnc4[nH]ccc34)cn2)C1 (single isomer, unassigned) [Example 3, (3R or 3S)-3-(4-(7H-Pyrrolo[2,3-d]pyrimidin-4-yl)-1H-pyrazol-1-yl)-3-((cis)-3-methylcyclobutyl)-propanenitrile phosphoric acid salt] | < 1 | < 2 |
| N#CCC(C1CCC1)n1cc(-c2ncnc3[nH]ccc23)cn1 (single isomer, unassigned) [Example 1, (R or S)-3-Cyclobutyl-3-[4-(7H-pyrrolo[2,3-d]pyrimidin-4-yl)-1H-pyrazol-1-yl]propanenitrile] | < 1 | < 2 |
